In PubChem BioAssay AID256 (DTP/NCI, 2004):
“And” between values parts separate entries of the source, which are not always exact repeats. Equal entries are not always repeated. Toxic doses and inconclusive results are not listed. The calls were made as follows: active = survival T/C of 150% or more; inactive = T/C below 125% in these data.

System: CD2F1 mice, L1210 leukemia ip, survival T/C
Test: NCI In Vivo Anticancer Drug Screen. Data for tumor model L1210 Leukemia (intraperitoneal) in CD2F1 (CDF1) mice
Conditions: endpoint: mean survival time, higher = longer survival
In short: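 Compound-dosed mice with transplantable tumor versus matched vehicle controls; endpoint ratio T/C reported.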

[1] = dose: 100.0 mg/kg/injection, schedule: Q04DX003 (ip), vehicle: saline with Tween-80
[2] = dose: 200.0 mg/kg/injection, schedule: Q04DX003 (ip), vehicle: saline with Tween-80
[3] = dose: 400.0 mg/kg/injection, schedule: Q04DX003 (ip), vehicle: saline with Tween-80
[4] = dose: 50.0 mg/kg/injection, schedule: Q01DX001 (ip), vehicle: saline with Tween-80
[5] = dose: 100.0 mg/kg/injection, schedule: Q01DX001 (ip), vehicle: saline with Tween-80
[6] = dose: 100.0 mg/kg/injection, schedule: Q04DX002 (ip), vehicle: saline with Tween-80
[7] = dose: 400.0 mg/kg/injection, schedule: Q04DX002 (ip), vehicle: saline with Tween-80
[8] = dose: 100.0 mg/kg/injection, schedule: Q01DX009 (ip), vehicle: saline with Tween-80
[9] = dose: 100.0 mg/kg/injection, schedule: Q04DX003 (ip), vehicle: saline
[10] = dose: 200.0 mg/kg/injection, schedule: Q01DX009 (ip), vehicle: saline with Tween-80
[11] = dose: 200.0 mg/kg/injection, schedule: Q04DX003 (ip), vehicle: saline

Measured: T/C

CC(=O)NC1C(OC(C)=O)OC(COC(c2ccccc2)(c2ccccc2)c2ccccc2)C(OS(C)(=O)=O)C1OC(C)=O (stereo not given)
inactive: dose: 50.0 mg/kg/injection, schedule: Q04DX003 (ip), vehicle: saline with Tween-80 95 % of control | [1] 103 % of control | [2] 101 % of control | [3] 89 % of control

CCOC(=O)c1c(C)cc(C)[nH]c1=O
inactive: dose: 100.0 mg/kg/injection, schedule: Q04DX003 (ip), vehicle: saline + alcohol 102 % of control | dose: 200.0 mg/kg/injection, schedule: Q04DX003 (ip), vehicle: saline + alcohol 107 % of control | dose: 400.0 mg/kg/injection, schedule: Q04DX003 (ip), vehicle: saline + alcohol 113 % of control

S=C(Oc1ccc(Cl)cc1)Sc1ccc(Cl)cc1
inactive: dose: 100.0 mg/kg/injection, schedule: Q04DX002 (ip), vehicle: Klucel (hydroxypropylcellulose) (HPC) 101 % of control | dose: 200.0 mg/kg/injection, schedule: Q04DX002 (ip), vehicle: Klucel (hydroxypropylcellulose) (HPC) 89 % of control | dose: 400.0 mg/kg/injection, schedule: Q04DX002 (ip), vehicle: Klucel (hydroxypropylcellulose) (HPC) 97 % of control

N=c1c2ncn(C3CCCC3)c2ncn1OCc1ccccc1
inactive: dose: 100.0 mg/kg/injection, schedule: Q01DX001 (ip), vehicle: other 98 % of control

N=C(N)c1ccc(OCCCCOc2ccc(NC(=O)Nc3ccc(S(=O)(=O)F)cc3Cl)cc2)cc1
inactive: dose: 12.5 mg/kg/injection, schedule: Q01DX001 (ip), vehicle: saline with Tween-80 98 % of control | dose: 25.0 mg/kg/injection, schedule: Q01DX001 (ip), vehicle: saline with Tween-80 98 % of control | [4] 96 % of control

COc1ccc2c(c1)CCC1C2CCC2(C)C(=O)NC(=O)N12 (stereo not given)
inactive: dose: 25.0 mg/kg/injection, schedule: Q04DX002 (ip), vehicle: saline with Tween-80 93 % of control | dose: 50.0 mg/kg/injection, schedule: Q04DX002 (ip), vehicle: saline with Tween-80 86 % of control | [5] 86 % of control | [6] 86 % of control and 90 % of control | dose: 400.0 mg/kg/injection, schedule: Q01DX001 (ip), vehicle: saline with Tween-80 93 % of control | [7] 86 % of control

CCNc1nc(NC(C)C)nc(SC)n1
inactive: dose: 50.0 mg/kg/injection, schedule: Q01DX009 (ip), vehicle: saline with Tween-80 104 % of control | [8] 101 % of control | [9] 97 % of control | [10] 117 % of control | [11] 101 % of control

Nc1cc(N)c2cccnc2c1O
inactive: dose: 6.25 mg/kg/injection, schedule: Q01DX009 (ip), vehicle: saline 101 % of control | dose: 12.5 mg/kg/injection, schedule: Q01DX009 (ip), vehicle: saline 114 % of control

CCCC1(CCC)NC(=O)NC1=O
inactive: dose: 100.0 mg/kg/injection, schedule: Q04DX003 (ip), vehicle: other 102 % of control | dose: 200.0 mg/kg/injection, schedule: Q04DX003 (ip), vehicle: other 102 % of control

CCCCCCCc1c(C)c2ccc(OC)cc2[nH]c1=O
inactive: [1] 95 % of control | [2] 90 % of control

Nc1nc(N)c2c(n1)NCN(OCc1c(Cl)cccc1Cl)C2
inactive: dose: 0.75 mg/kg/injection, schedule: Q01DX009 (ip), vehicle: water 96 % of control | dose: 1.5 mg/kg/injection, schedule: Q01DX009 (ip), vehicle: water 100 % of control | dose: 3.0 mg/kg/injection, schedule: Q01DX009 (ip), vehicle: water 102 % of control | dose: 6.0 mg/kg/injection, schedule: Q01DX009 (ip), vehicle: water 102 % of control | dose: 12.0 mg/kg/injection, schedule: Q01DX009 (ip), vehicle: water 104 % of control | dose: 24.0 mg/kg/injection, schedule: Q01DX009 (ip), vehicle: water 100 % of control

CC(=O)OC1CCC2(C)C(=CCC3C2CCC2(C)C(C(C)CCCC(C)C)CCC32)C1 (stereo not given)
inactive: dose: 50.0 mg/kg/injection, schedule: Q01DX009 (ip), vehicle: Klucel (hydroxypropylcellulose) (HPC) 96 % of control | dose: 100.0 mg/kg/injection, schedule: Q01DX009 (ip), vehicle: Klucel (hydroxypropylcellulose) (HPC) 93 % of control | dose: 200.0 mg/kg/injection, schedule: Q01DX009 (ip), vehicle: Klucel (hydroxypropylcellulose) (HPC) 86 % of control

O=NC1CCCCC1Cl (stereo not given)
inactive: dose: 100.0 mg/kg/injection, schedule: Q01DX001 (ip), vehicle: saline 96 % of control and 98 % of control and 93 % of control | dose: 200.0 mg/kg/injection, schedule: Q01DX001 (ip), vehicle: saline 95 % of control and 102 % of control and 100 % of control | dose: 400.0 mg/kg/injection, schedule: Q01DX001 (ip), vehicle: saline 101 % of control and 105 % of control

O=C1NC(=NC2CCCCC2)C2(CCNCC2)N1c1ccccc1
inactive: [4] 102 % of control | [5] 106 % of control | dose: 200.0 mg/kg/injection, schedule: Q01DX001 (ip), vehicle: saline with Tween-80 104 % of control

CC(=O)c1c(C)cc2cccc(OC3OC(CO)C(O)C(O)C3O)c2c1O (stereo not given) (tested in a mixture with another compound)
inactive: [9] 103 % of control | [11] 104 % of control | dose: 400.0 mg/kg/injection, schedule: Q04DX003 (ip), vehicle: saline 107 % of control

CCOc1ccccc1C(=O)OC(CN(CC)CC)c1ccccc1 (stereo not given)
inactive: dose: 100.0 mg/kg/injection, schedule: Q04DX002 (ip), vehicle: saline 95 % of control | dose: 200.0 mg/kg/injection, schedule: Q04DX002 (ip), vehicle: saline 95 % of control

Cn1c(=O)c2c(ncn2C2C(=O)NNC2=O)n(C)c1=O
inactive: dose: 12.5 mg/kg/injection, schedule: Q01DX005 (ip), vehicle: distilled water + Tween-80 102 % of control | dose: 25.0 mg/kg/injection, schedule: Q01DX005 (ip), vehicle: distilled water + Tween-80 104 % of control | dose: 50.0 mg/kg/injection, schedule: Q01DX005 (ip), vehicle: distilled water + Tween-80 104 % of control | dose: 100.0 mg/kg/injection, schedule: Q01DX005 (ip), vehicle: distilled water + Tween-80 98 % of control | dose: 200.0 mg/kg/injection, schedule: Q01DX005 (ip), vehicle: distilled water + Tween-80 92 % of control | dose: 400.0 mg/kg/injection, schedule: Q01DX005 (ip), vehicle: distilled water + Tween-80 95 % of control

Cn1c(=O)c2c(ncn2C(C=O)OC(C=O)CO)n(C)c1=O (stereo not given)
inactive: dose: 12.5 mg/kg/injection, schedule: Q01DX005 (ip), vehicle: water 101 % of control | dose: 25.0 mg/kg/injection, schedule: Q01DX005 (ip), vehicle: water 104 % of control | dose: 50.0 mg/kg/injection, schedule: Q01DX005 (ip), vehicle: water 110 % of control | dose: 100.0 mg/kg/injection, schedule: Q01DX005 (ip), vehicle: water 112 % of control

CC(C)(C)C1CCC(OC(=O)c2ccccc2C(=O)O)CC1 (stereo not given)
inactive: [8] 100 % of control | [1] 100 % of control | [10] 97 % of control | [2] 98 % of control | dose: 400.0 mg/kg/injection, schedule: Q01DX009 (ip), vehicle: saline with Tween-80 89 % of control | [3] 96 % of control

CCNC(=O)Nc1nc2ccccc2s1
inactive: [6] 103 % of control | dose: 200.0 mg/kg/injection, schedule: Q04DX002 (ip), vehicle: saline with Tween-80 103 % of control | [7] 92 % of control
